Test results reported in PMC4806491, “The milk-derived fusion peptide, ACFP, suppresses the growth of primary human ovarian cancer cells by regulating apoptotic gene expression and signaling pathways” (BMC Cancer, 2016).
Like-named read-outs stand apart in the source and are kept apart here. Positions of bridges follow the written chain, without caps; N, C: chain ends. Residues, ends and D or L forms follow the SMILES beside them.

System: primary ovarian cancer cells
Conditions: 48 h; for LOC441241 Ratio (ACFP/control): NM_441241
Description: We utilized cDNA microarrays to observe the effect of ACFP on gene expression in primary ovarian cancer cells. Cells were treated with 0 (the vehicle group, as control), 5 × 10^6 g/L and 5 × 10^3 g/L ACFP, respectively, and cultured for 48 h at 37 °C in 5 % CO2. Cells were later digested and collected for total RNA extraction using Trizol. The RNA concentrations and purities were detected with a spectrophotometer. The experiments were performed in duplicate on a single total RNA preparation from the cells. Signal values were presented as the mean value of two replicate experiments. RNA samples were used to generate human whole genome expression profiling microarray (Yeli Bioscience Co., Ltd.; Shanghai, China). RNA was subsequently converted into digoxigenin-labeled complementary RNA and hybridized to a human genome microarray system (Human OneArray Microarray, from Phalanx Biotech Group, Taiwan). The chips were scanned by a GeeDom® LuxScan 10 K microarray scanner. LuxScan3.0 software was used to extract probe fluorescence signals and analyze images. Finally, the original data were processed by normalizing.

## CC[C@H](C)[C@@H]1NC(=O)[C@H](CO)NC(=O)[C@@H]2CCCN2C(=O)[C@H](C)NC(=O)CNC(=O)[C@H](CC(C)C)NC(=O)[C@H](CCCCN)NC(=O)[C@H](CCCCN)NC(=O)[C@H](CCSC)NC(=O)[C@H](CCCNC(=N)N)NC(=O)[C@H](Cc2c[nH]c3ccccc23)NC(=O)[C@H](CCC(N)=O)NC(=O)[C@H](Cc2c[nH]c3ccccc23)NC(=O)[C@H](CCCNC(=N)N)NC(=O)[C@H](CCCNC(=N)N)NC(=O)[C@@H](NC(=O)[C@H](CCCCN)NC(=O)[C@@H](N)Cc2ccccc2)CSSC[C@@H](C(=O)N[C@H](C(=O)N[C@@H](CCCNC(=N)N)C(=O)N[C@@H](CCCNC(=N)N)C(=O)N[C@@H](C)C(=O)N[C@@H](Cc2ccccc2)C(=O)NCC(=O)NCC(=O)NCC(=O)NCC(=O)N[C@@H](CO)C(=O)N2CCC[C@H]2C(=O)NCC(=O)N2CCC[C@H]2C(=O)N[C@H](C(=O)N2CCC[C@H]2C(=O)N[C@@H](CC(N)=O)C(=O)O)[C@@H](C)CC)C(C)C)NC(=O)[C@H]([C@@H](C)O)NC1=O [ACFP] (H-FKCRRWQWRMKKLGAPSITCVRRAFGGGGSPGPIPN-OH; disulfide 3-20; N-terminus and C-terminus assumed)
High dose 5×10^-3 g/L, NM_114904, first entry
  C1QTNF6 Ratio (ACFP/control): 6.26
High dose 5×10^-3 g/L, NM_114904, second entry
  C1QTNF6 Ratio (ACFP/control): 6.26
High dose 5×10^-3 g/L
  LOC441241 Ratio (ACFP/control): 5.22
Low dose 5×10^-6 g/L, NM-002970
  GTF2IP1 Ratio (ACFP/control): 0.47
Low dose 5×10^-6 g/L, NM-003488
  IGFBP5 Ratio (ACFP/control): 0.45
Low dose 5×10^-6 g/L, NM-004638
  MYLK Ratio (ACFP/control): 0.33
Low dose 5×10^-6 g/L, NM-004824
  NKX3-1 Ratio (ACFP/control): 2.8
Low dose 5×10^-6 g/L, NM-005322
  PLA2G5 Ratio (ACFP/control): 0.36
Low dose 5×10^-6 g/L, NM-005429
  POLH Ratio (ACFP/control): 0.33
Low dose 5×10^-6 g/L, NM-005682
  PSMA1 Ratio (ACFP/control): 0.39
Low dose 5×10^-6 g/L, NM-006777
  STAT5B Ratio (ACFP/control): 3.24
Low dose 5×10^-6 g/L, NM-006778
  STAT6 Ratio (ACFP/control): 2.06
Low dose 5×10^-6 g/L, NM-007378
  UPP1 Ratio (ACFP/control): 0.48
Low dose 5×10^-6 g/L, NM-008995
  TNFSF18 Ratio (ACFP/control): 0.49
Low dose 5×10^-6 g/L, NM-009448
  MAP4K4 Ratio (ACFP/control): 0.36
Low dose 5×10^-6 g/L, NM-009774
  BTF/BCLAF1 Ratio (ACFP/control): 3.25
Low dose 5×10^-6 g/L, NM-016522
  TMEFF1 Ratio (ACFP/control): 3.33
Low dose 5×10^-6 g/L, NM-022931
  RAB18 Ratio (ACFP/control): 0.30
Low dose 5×10^-6 g/L, NM-051176
  TCF/LEF1 Ratio (ACFP/control): 0.36
Low dose 5×10^-6 g/L, NM-054984
  PINX1 Ratio (ACFP/control): 0.45
Low dose 5×10^-6 g/L, NM-060561
  RINT-1 Ratio (ACFP/control): 0.32
Low dose 5×10^-6 g/L, NM-084299
  C17orf37 Ratio (ACFP/control): 0.39
Low dose 5×10^-6 g/L, NM-084450
  ZNF512 Ratio (ACFP/control): 0.31
Low dose 5×10^-6 g/L, NM_000207
  AKT1 Ratio (ACFP/control): 0.29
Low dose 5×10^-6 g/L, NM_000390
  ARHE Ratio (ACFP/control): 2.99
Low dose 5×10^-6 g/L, NM_000573
  BAG1 Ratio (ACFP/control): 0.48
Low dose 5×10^-6 g/L, NM_000581
  BAX Ratio (ACFP/control): 3.73
Low dose 5×10^-6 g/L, NM_000598
  BCL-xl Ratio (ACFP/control): 0.28
Low dose 5×10^-6 g/L, NM_000714
  C1QG Ratio (ACFP/control): 2.02
Low dose 5×10^-6 g/L, NM_000836
  CASP3 Ratio (ACFP/control): 3.72
Low dose 5×10^-6 g/L, NM_000891, cyclinB1
  CCNB1 Ratio (ACFP/control): 0.30
Low dose 5×10^-6 g/L, NM_000943, first entry
  TNFRSF8 Ratio (ACFP/control): 2.05
Low dose 5×10^-6 g/L, NM_000943, second entry
  TNFRSF8 Ratio (ACFP/control): 2.02
Low dose 5×10^-6 g/L, NM_000995
  CDC25C Ratio (ACFP/control): 0.29
Low dose 5×10^-6 g/L, NM_001026
  CDKN1A Ratio (ACFP/control): 3.24
Low dose 5×10^-6 g/L, NM_001026, second entry
  CDKN1A/p21 Ratio (ACFP/control): 3.24
Low dose 5×10^-6 g/L, NM_001164
  CKS2 Ratio (ACFP/control): 3.67
Low dose 5×10^-6 g/L, NM_001855
  DVL1 Ratio (ACFP/control): 3.58
Low dose 5×10^-6 g/L, NM_002868
  GRK4 Ratio (ACFP/control): 0.42
Low dose 5×10^-6 g/L, NM_002869
  GRK5 Ratio (ACFP/control): 0.47
Low dose 5×10^-6 g/L, NM_002870
  GRK6 Ratio (ACFP/control): 0.49
Low dose 5×10^-6 g/L, NM_002948
  GSTM4 Ratio (ACFP/control): 2.25
Low dose 5×10^-6 g/L, NM_002949
  GSTM5 Ratio (ACFP/control): 3.55
Low dose 5×10^-6 g/L, NM_003665
  IRF7 Ratio (ACFP/control): 3.13
Low dose 5×10^-6 g/L, NM_003678
  ITGA5 Ratio (ACFP/control): 0.36
Low dose 5×10^-6 g/L, NM_005569
  PKIA Ratio (ACFP/control): 2.52
Low dose 5×10^-6 g/L, NM_005595
  MAPK3/ERK1 Ratio (ACFP/control): 0.36
Low dose 5×10^-6 g/L, NM_005599
  MAPK8/JNK1 Ratio (ACFP/control): 2.04
Low dose 5×10^-6 g/L, NM_005603
  MAPK13/p38 delta Ratio (ACFP/control): 2.91
Low dose 5×10^-6 g/L, NM_005696
  PSMB8 Ratio (ACFP/control): 2.97
Low dose 5×10^-6 g/L, NM_007132, first entry
  TNFRSF1A Ratio (ACFP/control): 3.50
Low dose 5×10^-6 g/L, NM_007132, second entry
  TNFRSF1A Ratio (ACFP/control): 3.50
Low dose 5×10^-6 g/L, NM_007559
  ZNF12 Ratio (ACFP/control): 2.07
Low dose 5×10^-6 g/L, NM_007920
  BAT5 Ratio (ACFP/control): 3.66
Low dose 5×10^-6 g/L, NM_008106
  PABPN1 Ratio (ACFP/control): 3.71
Low dose 5×10^-6 g/L, NM_008795
  TNFRSF10B Ratio (ACFP/control): 2.43
Low dose 5×10^-6 g/L, NM_009262
  STK17B Ratio (ACFP/control): 2.01
Low dose 5×10^-6 g/L, NM_009618
  TRAF4 Ratio (ACFP/control): 3.34
Low dose 5×10^-6 g/L, NM_009736
  USP34 Ratio (ACFP/control): 3.49
Low dose 5×10^-6 g/L, NM_009950
  GOLGA5 Ratio (ACFP/control): 2.46
Low dose 5×10^-6 g/L, NM_010209
  SUI1 Ratio (ACFP/control): 2.89
Low dose 5×10^-6 g/L, NM_010653
  SPINT2 Ratio (ACFP/control): 3.58
Low dose 5×10^-6 g/L, NM_023533
  PIK3R5 Ratio (ACFP/control): 0.39
Low dose 5×10^-6 g/L, NM_029775
  CARD10 Ratio (ACFP/control): 2.43
Low dose 5×10^-6 g/L, NM_051275
  FLJ39616 Ratio (ACFP/control): 3.34
Low dose 5×10^-6 g/L, NM_055970
  GNG12 Ratio (ACFP/control): 3.49
Low dose 5×10^-6 g/L, NM_063035
  BCORL1 Ratio (ACFP/control): 0.35
Low dose 5×10^-6 g/L, NM_079092
  CARD14 Ratio (ACFP/control): 2.13
Low dose 5×10^-6 g/L, NM_079370
  BCL2L14 Ratio (ACFP/control): 2.44
Low dose 5×10^-6 g/L, NM_079829
  FLJ13848 Ratio (ACFP/control): 3.28
Low dose 5×10^-6 g/L, NM_081788
  SNARK Ratio (ACFP/control): 3.08
Low dose 5×10^-6 g/L, NM_114904, first entry
  C1QTNF6 Ratio (ACFP/control): 3.57
Low dose 5×10^-6 g/L, NM_114904, second entry
  C1QTNF6 Ratio (ACFP/control): 3.43
Low dose 5×10^-6 g/L
  LOC441241 Ratio (ACFP/control): 3.48
